Like-named read-outs stand apart in the source and are kept apart here.
System: HCV pseudoparticles, genotype 1a HCV E1 and E2 envelope (H77C isolate)
Assay: HCV pseudoparticle infection assay (luciferase reporter, Huh7 cells)
Assay type: cell-based
Details: Hepatitis C virus, Huh-7, 48 h
[1] = read-out: EC50 (nM) 1a (H77C), class symbol, HCV pseudoparticles genotype 1a (H77C), luciferase 2 days after infection
[2] = read-out: EC50 (nM) 1a (H77C), numeric value, HCV pseudoparticles genotype 1a (H77C), luciferase 2 days after infection

Structure (SMILES) | EC50 [1] | EC50 [2]
O=C1NCc2ccc(cc2)Nc2nc(nc(OCC(F)(F)F)n2)NCc2cccc(c2)CNC(=O)OCCOCCOCCO1 [Example 0068] | 100 to 1000 nM | –
O=C1COCC(=O)NCc2ccc(cc2)Nc2nc(nc(OCC(F)(F)F)n2)NCc2ccc(cc2)CN1 [Example 0069] | 0.1 to 100 nM | 78.8 nM
O=C1COCC(=O)NCc2cccc(c2)CNc2nc(nc(OCC(F)(F)F)n2)Nc2ccc(cc2)CN1 [Example 0070] | 0.1 to 100 nM | –
CC1(C)C(=O)NCc2ccc(cc2)CNc2nc(nc(OCC(F)(F)F)n2)Nc2ccc(cc2)CNC1=O [Example 0071] | 100 to 1000 nM | –
CC1(C)C(=O)NCc2ccc(cc2)Nc2nc(nc(OCC(F)(F)F)n2)NCc2cccc(c2)CNC1=O [Example 0072] | 0.1 to 100 nM | –
O=C1NCCCCCNc2cccc(c2)C2(CC2)Nc2nc(nc(OCC(F)(F)F)n2)Nc2ccc1cc2 [Example 3001] | 0.1 to 100 nM | –
O=C1CNC(=O)c2ccc(cc2)Nc2nc(nc(OCC(F)(F)F)n2)NCc2ccc(cc2)NC(=O)CN1 [Example 3002] | 100 to 1000 nM | –
O=C1CNC(=O)CNC(=O)c2ccc(cc2)Nc2nc(nc(OCC(F)(F)F)n2)NCc2ccc(cc2)NC(=O)CN1 [Example 3003] | 100 to 1000 nM | –
O=C1NS(=O)(=O)C/C=C/CCCOc2ccc(cc2)CNc2nc(nc(OCC(F)(F)F)n2)Nc2ccc1cc2 [Example 3005] | 1000 to 5000 nM | –
O=C1CNC(=O)c2ccc(cc2)Nc2nc(nc(OCC(F)(F)F)n2)NCc2ccc(cc2)OCC=CCS(=O)(=O)N1 [Example 3007] | 100 to 1000 nM | 557 nM
O=C1CCCNC(=O)c2ccc(cc2)Nc2nc(nc(OCC(F)(F)F)n2)NCc2ccc(cc2)OCC=CCS(=O)(=O)N1 [Example 3010] | 0.1 to 100 nM | 20.3 nM
O=C1CCCCNC(=O)c2ccc(cc2)Nc2nc(nc(OCC(F)(F)F)n2)NCc2ccc(cc2)OC/C=C/S(=O)(=O)N1 [Example 3012] | 100 to 1000 nM | 275 nM
O=C1NCCCCNCCOc2ccc(cc2)CNC2=N/C(=N\c3ccc1cc3)N=C(OCC(F)(F)F)N2 [Example 4001, (2E)-5-(2,2,2-trifluoroethoxy)-14-oxa-2,4,6,8,17,22,31-heptaazatetracyclo[22.2.2.2∼10,13∼.1∼3,7∼]hentriaconta-1(26),2,4,7(31),10,12,24,27,29-nonaen-23-one] | 0.1 to 100 nM | –
CC(=O)N1CCCCNC(=O)c2ccc(cc2)Nc2nc(nc(OCC(F)(F)F)n2)NCc2ccc(cc2)OCC1 [Example 4002] | 100 to 1000 nM | 105 nM
CCC(=O)N1CCCCNC(=O)c2ccc(cc2)Nc2nc(nc(OCC(F)(F)F)n2)NCc2ccc(cc2)OCC1 [Example 4003] | 0.1 to 100 nM | –
CC(C)C(=O)N1CCCCNC(=O)c2ccc(cc2)Nc2nc(nc(OCC(F)(F)F)n2)NCc2ccc(cc2)OCC1 [Example 4004] | 0.1 to 100 nM | –

Structure (SMILES) | EC50 [1] | EC50 [2]
CC(C)(C)C(=O)N1CCCCNC(=O)c2ccc(cc2)Nc2nc(nc(OCC(F)(F)F)n2)NCc2ccc(cc2)OCC1 [Example 4005] | 0.1 to 100 nM | –
CNC(=O)N1CCCCNC(=O)c2ccc(cc2)Nc2nc(nc(OCC(F)(F)F)n2)NCc2ccc(cc2)OCC1 [Example 4006] | 0.1 to 100 nM | –
CCNC(=O)N1CCCCNC(=O)c2ccc(cc2)Nc2nc(nc(OCC(F)(F)F)n2)NCc2ccc(cc2)OCC1 [Example 4007] | 0.1 to 100 nM | –
CC(C)NC(=O)N1CCCCNC(=O)c2ccc(cc2)Nc2nc(nc(OCC(F)(F)F)n2)NCc2ccc(cc2)OCC1 [Example 4008] | 0.1 to 100 nM | –
CC(C)(C)NC(=O)N1CCCCNC(=O)c2ccc(cc2)Nc2nc(nc(OCC(F)(F)F)n2)NCc2ccc(cc2)OCC1 [Example 4009] | 0.1 to 100 nM | 8.47 nM
COC(=O)N1CCCCNC(=O)c2ccc(cc2)Nc2nc(nc(OCC(F)(F)F)n2)NCc2ccc(cc2)OCC1 [Example 4013] | 0.1 to 100 nM | –
CCOC(=O)N1CCCCNC(=O)c2ccc(cc2)Nc2nc(nc(OCC(F)(F)F)n2)NCc2ccc(cc2)OCC1 [Example 4014] | 0.1 to 100 nM | –
CC(C)OC(=O)N1CCCCNC(=O)c2ccc(cc2)Nc2nc(nc(OCC(F)(F)F)n2)NCc2ccc(cc2)OCC1 [Example 4015] | 0.1 to 100 nM | –
CC(C)(C)OC(=O)N1CCCCNC(=O)c2ccc(cc2)Nc2nc(nc(OCC(F)(F)F)n2)NCc2ccc(cc2)OCC1 [Example 4016] | 0.1 to 100 nM | –
O=C1NCCCNCCCCOc2ccc(cc2)CNc2nc(nc(OCC(F)(F)F)n2)Nc2ccc1cc2 [Example 4017] | 0.1 to 100 nM | –
CC(=O)N1CCCCOc2ccc(cc2)CNc2nc(nc(OCC(F)(F)F)n2)Nc2ccc(cc2)C(=O)NCCC1 [Example 4018] | 0.1 to 100 nM | –
CCC(=O)N1CCCCOc2ccc(cc2)CNc2nc(nc(OCC(F)(F)F)n2)Nc2ccc(cc2)C(=O)NCCC1 [Example 4019] | 0.1 to 100 nM | –
CC(C)C(=O)N1CCCCOc2ccc(cc2)CNc2nc(nc(OCC(F)(F)F)n2)Nc2ccc(cc2)C(=O)NCCC1 [Example 4020] | 0.1 to 100 nM | –
COC(=O)N1CCCCOc2ccc(cc2)CNc2nc(nc(OCC(F)(F)F)n2)Nc2ccc(cc2)C(=O)NCCC1 [Example 4023] | 0.1 to 100 nM | –
CCOC(=O)N1CCCCOc2ccc(cc2)CNc2nc(nc(OCC(F)(F)F)n2)Nc2ccc(cc2)C(=O)NCCC1 [Example 4024] | 0.1 to 100 nM | –

From patent EP2697230B1, “COMPOUNDS FOR THE TREATMENT OF HEPATITIS C” (priority 2011, dated 2012)
